For series [1], the target named is Nuclear factor NF-kappa-B complex (Homo sapiens) (UniProt Q00653+P19838+Q04206). The series can be described thus: Activation of NF-kappaB mediated pro-inflammatory effector proteins in human THP-1 cells at 2 to 10 nM incubated for 4 hrs by western blot analysis. It counts as cell-based. Conditions: filed as activator, dose 2-10 nM. (In general: In western blotting, separated proteins are transferred to a membrane and probed.)

In series [2] the test system is THP-1. The series can be described thus: […] of IFNB in human THP-1 cells at 100 nM measured after 18 hrs by RT-PCR analysis. Format: functional, cell-based.
Series [3] has as its target Cytochrome P450 2C19 (Homo sapiens, UniProt P33261). The series is described as follows: Inhibition of CYP2C19 in human liver microsomes using S-mephenytoin as cocktail probe substrate preincubated for 5 mins followed by NADPH addition and measured after 30 mins by HPLC-MS/MS analysis. It counts as ADME, Microsome. For orientation: Microsomes from liver hold many membrane-bound enzymes, among them those of drug oxidation.

Series [4] in a line: Terminal half life in BALB/c mouse at 3 mg/kg, iv by LC-MS/MS analysis. It counts as ADME, organism-based. Conditions: in vivo, read-out: beta t1/2 (converted).
Series [5] has as its system THP-1. The series is described as follows: Upregulation of IFITM1 in human THP-1 cells at 100 nM measured after 6 to 18 hrs by RT-PCR analysis. Format: functional, cell-based. Conditions: time 6-18 hrs.
The nature of series [6]: Volume of distribution at steady state in BALB/c mouse at 3 mg/kg, iv by LC-MS/MS analysis. Format: ADME, organism-based. Conditions: in vivo, read-out: Vdss.
For series [7], the target named is T1, Stimulator of interferon genes protein (Homo sapiens, UniProt Q86WV6). The series is described as follows: Activation of STING pathway in human THP-1 cells assessed as increase in TBK1 phosphorylation at 2 nM incubated for 6 hrs by Western blotting analysis. Format: cell-based. Conditions: filed as activator.
T1 sequence (Q86WV6 whole entry): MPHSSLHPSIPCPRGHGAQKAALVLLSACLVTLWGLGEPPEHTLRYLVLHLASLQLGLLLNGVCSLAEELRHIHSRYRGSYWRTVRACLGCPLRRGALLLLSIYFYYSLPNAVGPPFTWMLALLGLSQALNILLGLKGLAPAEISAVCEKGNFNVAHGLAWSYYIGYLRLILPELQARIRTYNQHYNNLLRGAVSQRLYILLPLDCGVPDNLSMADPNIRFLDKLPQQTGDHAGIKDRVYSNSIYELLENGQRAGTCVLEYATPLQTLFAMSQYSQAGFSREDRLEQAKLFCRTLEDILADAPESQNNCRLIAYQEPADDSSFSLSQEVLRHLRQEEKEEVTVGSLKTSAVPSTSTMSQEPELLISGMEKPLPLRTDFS
Series [8] has as its target T2, Cytochrome P450 1A2 (Homo sapiens, UniProt P05177).
T2 sequence (P05177 whole entry): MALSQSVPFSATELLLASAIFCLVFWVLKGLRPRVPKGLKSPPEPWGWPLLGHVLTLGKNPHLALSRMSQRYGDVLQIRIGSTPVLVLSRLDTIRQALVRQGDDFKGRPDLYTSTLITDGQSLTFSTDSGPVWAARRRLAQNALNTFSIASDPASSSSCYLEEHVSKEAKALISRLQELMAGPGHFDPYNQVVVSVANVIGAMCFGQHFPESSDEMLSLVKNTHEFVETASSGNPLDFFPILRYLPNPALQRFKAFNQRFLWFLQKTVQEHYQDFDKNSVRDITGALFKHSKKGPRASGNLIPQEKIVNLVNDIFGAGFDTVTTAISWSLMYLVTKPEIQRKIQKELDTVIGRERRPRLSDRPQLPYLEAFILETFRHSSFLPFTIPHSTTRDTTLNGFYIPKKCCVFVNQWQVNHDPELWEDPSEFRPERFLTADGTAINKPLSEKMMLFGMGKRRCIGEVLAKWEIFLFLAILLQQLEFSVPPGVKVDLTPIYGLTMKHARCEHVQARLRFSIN
The series can be described thus: Inhibition of CYP1A2 in human liver microsomes using phenacetin as cocktail probe substrate preincubated for 5 mins followed by NADPH addition and measured after 30 mins by HPLC-MS/MS analysis. Format: ADME, Microsome.

In series [9] the target is T1, Stimulator of interferon genes protein. Conditions: THP1-Dual, filed as activator, dose 50.0 µM, time 24.0 hrs.
Series [10] shares this target. The series can be described thus: Binding affinity to recombinant human His-tagged STING by measuring fluorescent signals in the presence of d2 labelled STING wild type ligand by HTRF based microplate reader analysis. (In TR-FRET formats the signal depends on donor and acceptor labels being close together.)
Series [11] shares this target. The series can be described thus: Activation of STING mediated immune response in human THP-1 cells assessed as induction of IP-10 secretion measured after 24 hrs by ELISA. Conditions: filed as activator, dose 0.41-100 nM, DDE = dose-dependent effect. Format: cell-based.
In series [12] the test system is Mus musculus. The series is described as follows: Upregulation of IL-6 in BALB/c mouse serum at 1.5 mg/kg, iv measured after 4 hrs by ELISA. It counts as functional, organism-based.
The subject of series [13] is THP-1. The series can be described thus: Upregulation of OAS1 in human THP-1 cells at 100 nM measured after 6 to 18 hrs by RT-PCR analysis. It counts as functional, cell-based. Conditions: time 6-18 hrs.
The target in series [14] is T3, Stimulator of interferon genes protein (Mus musculus) (UniProt Q3TBT3).
T3 sequence (whole entry): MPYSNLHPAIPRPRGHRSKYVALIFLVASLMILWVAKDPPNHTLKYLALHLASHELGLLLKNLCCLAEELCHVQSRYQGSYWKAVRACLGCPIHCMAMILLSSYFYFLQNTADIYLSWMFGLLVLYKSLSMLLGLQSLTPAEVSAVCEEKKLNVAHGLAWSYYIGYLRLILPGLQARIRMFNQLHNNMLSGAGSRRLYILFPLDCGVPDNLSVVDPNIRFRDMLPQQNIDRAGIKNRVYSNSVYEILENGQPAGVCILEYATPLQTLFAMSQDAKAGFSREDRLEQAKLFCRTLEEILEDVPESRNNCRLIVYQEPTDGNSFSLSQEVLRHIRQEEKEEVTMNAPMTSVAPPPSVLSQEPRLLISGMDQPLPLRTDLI
The series can be described thus: Activation of STING mediated immune response in mouse RAW264.7 cells assessed as induction of IP-10 secretion measured after 24 hrs by ELISA. It counts as cell-based. Conditions: filed as activator, dose 0.32-5000 nM, DDE = dose-dependent effect.

Series [15] has as its system THP-1. The series is described as follows: Upregulation of IFIT3 in human THP-1 cells at 100 nM measured after 6 to 18 hrs by RT-PCR analysis. Format: functional, cell-based. Conditions: time 6-18 hrs.
Series [16] deals with Voltage-gated inwardly rectifying potassium channel KCNH2 (Homo sapiens, UniProt Q12809). The series is described as follows: Inhibition of hERG by patch clamp assay. Format: toxicity.
Sequence of Voltage-gated inwardly rectifying potassium channel KCNH2 (Q12809 whole entry): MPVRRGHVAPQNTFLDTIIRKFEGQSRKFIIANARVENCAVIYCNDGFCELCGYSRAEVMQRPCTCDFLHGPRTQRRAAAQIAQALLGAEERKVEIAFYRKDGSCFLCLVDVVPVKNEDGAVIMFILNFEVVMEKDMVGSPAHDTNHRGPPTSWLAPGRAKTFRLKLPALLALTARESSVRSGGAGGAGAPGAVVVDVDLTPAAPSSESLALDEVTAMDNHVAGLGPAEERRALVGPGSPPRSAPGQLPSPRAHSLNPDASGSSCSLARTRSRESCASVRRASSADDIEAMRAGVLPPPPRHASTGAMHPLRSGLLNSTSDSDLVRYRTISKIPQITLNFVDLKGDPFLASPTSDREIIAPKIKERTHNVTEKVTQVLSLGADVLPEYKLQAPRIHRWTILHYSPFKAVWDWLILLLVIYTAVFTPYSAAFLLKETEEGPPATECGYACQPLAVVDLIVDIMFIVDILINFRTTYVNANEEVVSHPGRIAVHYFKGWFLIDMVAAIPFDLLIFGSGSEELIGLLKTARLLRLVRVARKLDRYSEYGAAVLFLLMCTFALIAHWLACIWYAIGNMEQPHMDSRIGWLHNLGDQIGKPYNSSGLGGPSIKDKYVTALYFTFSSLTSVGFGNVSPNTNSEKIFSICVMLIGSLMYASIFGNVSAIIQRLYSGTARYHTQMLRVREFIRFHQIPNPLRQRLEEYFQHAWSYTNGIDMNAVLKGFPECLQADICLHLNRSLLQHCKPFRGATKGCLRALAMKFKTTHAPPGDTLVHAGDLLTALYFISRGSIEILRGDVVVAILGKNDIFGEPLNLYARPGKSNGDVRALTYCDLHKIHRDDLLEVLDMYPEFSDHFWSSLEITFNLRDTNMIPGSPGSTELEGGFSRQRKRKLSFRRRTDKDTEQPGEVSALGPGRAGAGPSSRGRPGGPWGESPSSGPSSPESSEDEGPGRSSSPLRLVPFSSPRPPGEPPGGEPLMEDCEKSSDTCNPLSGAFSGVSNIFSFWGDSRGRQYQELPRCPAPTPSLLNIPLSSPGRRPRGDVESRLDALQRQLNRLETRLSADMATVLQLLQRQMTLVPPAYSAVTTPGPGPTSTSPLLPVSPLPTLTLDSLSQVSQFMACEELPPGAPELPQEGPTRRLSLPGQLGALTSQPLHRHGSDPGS
Series [17] deals with THP-1. The series is described as follows: Upregulation of CXCL10 in human THP-1 cells at 100 nM measured after 6 to 18 hrs by RT-PCR analysis. Conditions: time 6-18 hrs. Format: functional, cell-based.
The nature of series [18]: Activation of IRF-mediated immune response in human THP1-Dual KO-STING cells co-expressing ISRE reporter assessed as normalized luciferase gene expression by measuring relative luciferase units at 50 uM incubated for 24 hrs by QUANTI Luc based microplate reader method. Format: functional.
Series [19] is described as follows: Stability in human liver microsome assessed as parent compound remaining at 1 uM measured after 30 mins in the presence of NADPH by HPLC-MS/MS analysis. It counts as ADME. Conditions: liver microsomes, read-out: Stability.
Series [20] has as its target T1, Stimulator of interferon genes protein. The series can be described thus: Activation of STING pathway in human THP1-cells assessed as increase in STING phosphorylation at 2 nM incubated for 6 hrs by Western blotting analysis. Format: cell-based. Conditions: THP-1, filed as activator.
Series [21] in a line: Stability in mouse liver microsome assessed as parent compound remaining at 1 uM measured after 30 mins in the presence of NADPH by HPLC-MS/MS analysis. Conditions: liver microsomes, read-out: Stability. It counts as ADME.
Series [22] concerns the target T1, Stimulator of interferon genes protein. The series can be described thus: Binding affinity to STING in human THP-1 cells assessed as thermal stabilization at 48 to 55 degC at 100 nM incubated for 4 hrs by western blotting based CETSA assay. It counts as cell-based. Conditions: filed as activator.
Series [23] concerns the target T3, Stimulator of interferon genes protein (Mus musculus). The series is described as follows: Activation of STING mediated immune response in mouse RAW264.7 cells assessed as induction of IFNbeta secretion measured after 24 hrs by ELISA. It counts as cell-based. Conditions: filed as activator, dose 0.32-5000 nM, DDE = dose-dependent effect.
The test system of series [24] is THP-1. The series can be described thus: Upregulation of IRF7 in human THP-1 cells at 100 nM measured after 6 to 18 hrs by RT-PCR analysis. It counts as functional, cell-based. Conditions: time 6-18 hrs.

Data on one compound can be found in ChEMBL document CHEMBL5154810, “Development of Potent Immune Modulators Targeting Stimulator of Interferon Genes Receptor” (J Med Chem, 2022).

The source made the active and inactive calls. No cut-off for these calls is given here.

Sequence of Nuclear factor NF-kappa-B complex (Homo sapiens) (P19838 whole entry, looked up): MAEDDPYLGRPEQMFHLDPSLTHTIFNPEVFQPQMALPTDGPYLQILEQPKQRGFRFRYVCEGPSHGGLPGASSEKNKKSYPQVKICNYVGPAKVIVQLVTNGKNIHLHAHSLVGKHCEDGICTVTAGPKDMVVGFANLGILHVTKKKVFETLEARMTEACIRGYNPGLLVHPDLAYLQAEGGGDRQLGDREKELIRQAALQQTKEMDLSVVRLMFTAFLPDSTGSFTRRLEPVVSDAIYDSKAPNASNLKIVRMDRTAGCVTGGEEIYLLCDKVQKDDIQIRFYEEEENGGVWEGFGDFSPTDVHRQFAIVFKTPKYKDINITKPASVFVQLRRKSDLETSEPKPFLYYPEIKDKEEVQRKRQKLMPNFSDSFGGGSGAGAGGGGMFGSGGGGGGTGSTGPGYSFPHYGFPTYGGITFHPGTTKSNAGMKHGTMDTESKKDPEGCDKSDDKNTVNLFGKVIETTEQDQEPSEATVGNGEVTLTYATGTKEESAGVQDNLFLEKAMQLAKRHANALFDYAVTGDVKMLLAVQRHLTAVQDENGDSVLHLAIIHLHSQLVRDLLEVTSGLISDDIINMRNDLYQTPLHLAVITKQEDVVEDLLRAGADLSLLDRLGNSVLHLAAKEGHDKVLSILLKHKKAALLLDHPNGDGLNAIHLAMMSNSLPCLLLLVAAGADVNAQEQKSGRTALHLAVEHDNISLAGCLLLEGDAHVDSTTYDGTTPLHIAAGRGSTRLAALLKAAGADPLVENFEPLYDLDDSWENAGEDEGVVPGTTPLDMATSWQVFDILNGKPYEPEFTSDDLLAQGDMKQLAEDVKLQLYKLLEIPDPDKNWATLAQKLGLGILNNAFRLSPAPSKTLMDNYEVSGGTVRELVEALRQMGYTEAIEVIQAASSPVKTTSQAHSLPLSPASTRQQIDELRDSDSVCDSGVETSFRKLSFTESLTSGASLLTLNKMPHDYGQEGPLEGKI
Sequence of Nuclear factor NF-kappa-B complex (Homo sapiens) (Q00653 whole entry, looked up): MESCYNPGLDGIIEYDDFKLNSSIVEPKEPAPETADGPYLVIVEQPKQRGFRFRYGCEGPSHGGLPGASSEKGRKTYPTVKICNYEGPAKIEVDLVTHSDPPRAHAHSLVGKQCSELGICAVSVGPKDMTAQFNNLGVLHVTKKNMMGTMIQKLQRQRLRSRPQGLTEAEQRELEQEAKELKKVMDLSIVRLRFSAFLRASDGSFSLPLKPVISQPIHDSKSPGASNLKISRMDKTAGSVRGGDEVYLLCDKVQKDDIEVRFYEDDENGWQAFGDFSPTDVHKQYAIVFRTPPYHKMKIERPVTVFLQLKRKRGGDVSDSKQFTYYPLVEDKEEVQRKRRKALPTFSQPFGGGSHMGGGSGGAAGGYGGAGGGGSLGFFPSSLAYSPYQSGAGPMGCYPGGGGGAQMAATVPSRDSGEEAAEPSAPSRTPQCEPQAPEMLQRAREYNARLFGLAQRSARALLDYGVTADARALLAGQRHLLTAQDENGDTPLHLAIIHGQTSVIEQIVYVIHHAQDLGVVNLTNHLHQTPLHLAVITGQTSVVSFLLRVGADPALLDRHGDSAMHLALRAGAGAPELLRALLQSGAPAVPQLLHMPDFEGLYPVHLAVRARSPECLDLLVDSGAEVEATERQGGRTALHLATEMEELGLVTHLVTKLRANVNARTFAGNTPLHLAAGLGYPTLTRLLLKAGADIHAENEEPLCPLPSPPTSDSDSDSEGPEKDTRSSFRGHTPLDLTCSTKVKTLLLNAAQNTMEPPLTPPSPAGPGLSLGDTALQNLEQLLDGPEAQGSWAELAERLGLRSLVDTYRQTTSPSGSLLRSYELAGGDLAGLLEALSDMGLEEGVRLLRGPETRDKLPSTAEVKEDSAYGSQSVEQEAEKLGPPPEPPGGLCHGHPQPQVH
Sequence of Nuclear factor NF-kappa-B complex (Homo sapiens) (Q04206 whole entry, looked up): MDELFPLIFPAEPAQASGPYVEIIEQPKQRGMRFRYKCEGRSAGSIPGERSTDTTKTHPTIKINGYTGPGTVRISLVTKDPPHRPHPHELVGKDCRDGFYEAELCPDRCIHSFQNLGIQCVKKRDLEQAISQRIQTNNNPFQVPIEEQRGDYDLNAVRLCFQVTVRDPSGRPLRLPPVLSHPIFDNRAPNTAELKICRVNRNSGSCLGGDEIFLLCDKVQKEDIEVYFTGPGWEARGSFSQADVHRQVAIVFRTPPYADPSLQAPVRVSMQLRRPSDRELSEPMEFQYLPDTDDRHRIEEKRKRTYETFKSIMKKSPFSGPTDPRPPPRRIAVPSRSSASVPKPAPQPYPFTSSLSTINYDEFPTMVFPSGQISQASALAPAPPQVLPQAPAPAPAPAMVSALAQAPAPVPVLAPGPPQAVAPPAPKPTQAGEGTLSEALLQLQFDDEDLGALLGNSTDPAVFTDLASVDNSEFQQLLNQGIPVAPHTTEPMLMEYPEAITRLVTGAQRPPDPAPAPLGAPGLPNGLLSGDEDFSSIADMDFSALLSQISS
Sequence of Cytochrome P450 2C19 (P33261 whole entry): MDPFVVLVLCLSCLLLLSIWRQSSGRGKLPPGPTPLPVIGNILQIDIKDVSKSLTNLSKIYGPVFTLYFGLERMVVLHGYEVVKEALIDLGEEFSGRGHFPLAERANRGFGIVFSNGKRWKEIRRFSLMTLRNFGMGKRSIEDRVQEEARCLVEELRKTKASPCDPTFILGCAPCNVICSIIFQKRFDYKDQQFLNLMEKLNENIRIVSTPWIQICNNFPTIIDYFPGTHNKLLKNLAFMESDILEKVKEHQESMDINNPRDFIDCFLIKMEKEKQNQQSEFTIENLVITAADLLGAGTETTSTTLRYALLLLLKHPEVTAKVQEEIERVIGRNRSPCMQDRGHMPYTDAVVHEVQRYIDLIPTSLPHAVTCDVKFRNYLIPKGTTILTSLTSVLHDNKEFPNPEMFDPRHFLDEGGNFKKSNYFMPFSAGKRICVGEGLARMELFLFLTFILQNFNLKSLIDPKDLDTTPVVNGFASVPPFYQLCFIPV

Regarding `CCn1nc(C)cc1C(=O)Nc1nc2cc(C(N)=O)cc(OC)c2n1C/C=C/Cn1c(NC(=O)c2cc(C)nn2CC)nc2cc(C(N)=O)cc(OCCCNC(=O)OC(C)(C)C)c21`, the result in series [1], in [2], in series [5], in [7], in series [12] and in series [13] was Active. The result in series [15], in series [17], in [20], in series [22] and in series [24] was Active. The concentration for half-maximal inhibition (IC50) in series [3] was > 100 µM; in series [8], > 100 µM; in series [10], 0.0623 nM; in [16] it was > 50 µM. For the same compound, the half-life in series [4] was 10.5 h. In addition, the Vd in [6] was 17.7 L/kg. Further, the results for the RLU in [9] and in series [18] were 102 and 1.1, respectively. The Activity entry in series [11], in series [14] and in series [23] was “Dde” in each case. The remaining at 0.5 h, 1 µM in series [19] stood at 11.2%; in series [21] it was 38.7%.

By IC50 is commonly meant the point on the concentration scale where inhibition reaches its midpoint.
